Results: the NIST ThermoML archive (doi:10.1016/j.jct.2015.08.036)

How the values were obtained:
[1] = xn = mol fraction of the nth substance listed; settings: 100 kPa, Liquid, x2 = 0.25; for electrical conductivity: Alternating current cell with electrodes; for viscosity: Capillary tube (Ostwald / Ubbelohde) method; for mass density: Pycnometric method
[2] = 101.33 kPa, Liquid; for viscosity: Capillary tube (Ostwald / Ubbelohde) method; for mass density: Pycnometric method

CC(N)=O [ethanamide] + N#C[S-].[K+]
[1]
Settings | electrical conductivity [S/m] | mass density [kg/m3] | viscosity [mPa·s]
298.15 K | 0.117 | 1197.1 | 190.16
303.15 K | 0.205 | 1193.7 | 127.31
308.15 K | 0.311 | 1190.5 | 88.81
313.15 K | 0.429 | 1187.7 | 63.77
318.15 K | 0.574 | 1184.5 | 48.11

CCO [ethanol]
[2]
Settings | mass density [kg/m3] | viscosity [mPa·s]
298.15 K | 785.2 | 1.096
303.15 K | 781 | 1.003
308.15 K | 776.7 | 0.914
313.15 K | 772.3 | 0.834
318.15 K | 766.3 | 0.764
